For 27 compounds, IC50 and Activity results are on record in ChEMBL document CHEMBL4402540, “Structure-Activity Relationship Studies of Small Molecule Modulators of the Staphylococcal Accessory Gene Regulator” (J Med Chem, 2020).

Where a SMILES comes first, the peptide text is derived from it. Bridges are numbered along the chain shown (N, C = ends). [ ]: non-standard residue; d: D form. The star is where a group is joined. 6FAM = O=C1OC2(c3ccc(O)cc3Oc3cc(O)ccc32)c2cc(C(=O)*)ccc21; NMeF = CN[C@@H](Cc1ccccc1)C(=O)O; NMeL = CN[C@@H](CC(C)C)C(=O)O; NMeS = CN[C@@H](CO)C(=O)O; Pent4ynoyl = C#CCCC(=O)*; Dap = NC[C@H](N)C(=O)O; AEEA = NCCOCCOCC(=O)O; Aoc = NCCCCCCCC(=O)O; Ava = NCCCCC(=O)O; Mpa = O=C(O)CCS Bounds are passed on as bounds.

Test [1] in a line: Inhibition of AgrC-2 in Staphylococcus aureus AH430 incubated for 24 hrs by fluorescence assay.
Test [2] in a line: Inhibition of AgrC-1 in Staphylococcus aureus AH1677 incubated for 24 hrs by fluorescence assay.
Test [3] in a line: Inhibition of AgrC-3 in Staphylococcus aureus AH1747 incubated for 24 hrs by fluorescence assay.
A short description of test [4]: Inhibition of AgrC-4 in Staphylococcus aureus AH1872 incubated for 24 hrs by fluorescence assay.
Test [5] is described as follows: Inhibition of AgrC-2 in Staphylococcus aureus RN9372 incubated for 60 to 90 mins in presence of AIP agonist by beta-lactamase reporter gene assay.
A short description of test [6]: Inhibition of AgrC-2 in Staphylococcus aureus RN9372 incubated for 1 hr in presence of AIP agonist by beta-lactamase reporter gene assay.
Test [7] in a line: Inhibition of AgrC-1 in Staphylococcus aureus RN9222 incubated for 1 hr in presence of AIP agonist by beta-lactamase reporter gene assay.
In test [8] the target is T1, Chloramphenicol acetyltransferase (Staphylococcus epidermidis) (UniProt D2JCN2).
T1 sequence (whole entry): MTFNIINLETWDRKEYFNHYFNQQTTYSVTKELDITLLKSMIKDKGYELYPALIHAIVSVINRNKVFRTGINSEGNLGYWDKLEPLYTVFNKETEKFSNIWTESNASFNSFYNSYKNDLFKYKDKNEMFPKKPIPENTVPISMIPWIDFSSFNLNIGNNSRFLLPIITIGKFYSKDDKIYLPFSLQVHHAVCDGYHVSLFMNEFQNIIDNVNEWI
Description: Activation of Chloramphenicol acetyltransferase activity in Staphylococcus epidermidis Tu3298 at 200 nM and measured every 15 sec for 20 mins (reference value: 12.5 U/mg).

`O=C1COCCOCCNC(=O)[C@H](NC(=O)Cc2ccccc2)CSC(=O)[C@H](Cc2cccc(Cl)c2)NC(=O)[C@H](CC2CCCC2)N1`: the IC50 in test [1] worked out at 6.47 nM; in test [2] it was 4.88 nM; in test [3] it was 0.387 nM; in test [4], 3.87 nM.
On the same counts, the results for `CC(=O)N[C@H]1CSC(=O)[C@H](Cc2ccccc2)NC(=O)[C@H](Cc2ccccc2)NC(=O)CCCCCCCCNC1=O` are 479 nM, 468 nM, 125 nM and 3490 nM.
Consider `CC(=O)N[C@H]1CNC(=O)[C@H](Cc2ccccc2)NC(=O)[C@H](Cc2ccccc2)NC(=O)CCCCCCCCNC1=O`, for which the IC50 worked out at 1340 nM in test [1], 4740 nM in test [2] and 2610 nM in test [3].
Regarding `O=C1COCCOCCNC(=O)[C@H](NC(=O)Cc2ccccc2)CSC(=O)[C@H](Cc2cccc(F)c2)NC(=O)[C@H](CC2CCCC2)N1`, the IC50 in test [1] was 17.9 nM; in test [2], 2.01 nM; in test [3], 0.0918 nM; in test [4], 4.75 nM.
For `CC(=O)N[C@@H]1C/C=C\[C@H](Cc2ccccc2)NC(=O)[C@H](CC(C)C)NC(=O)[C@H](CO)NC(=O)[C@H](CO)NC1=O` the same measures were greater than 10000 nM, greater than 10000 nM, greater than 10000 nM and greater than 10000 nM.
For the compound `CC[C@H](C)[C@H](NC(=O)c1ccc2c(c1)C1(OC2=O)c2ccc(O)cc2Oc2cc(O)ccc21)C(=O)N[C@@H](CC(N)=O)C(=O)N[C@H]1CSC(=O)[C@H](CC(C)C)NC(=O)[C@H](CC(C)C)NC(=O)[C@H](Cc2ccccc2)NC(=O)[C@H](C)NC1=O` (6FAM-INCAFLL; thioester 3-C), the IC50 in test [5] was 22 nM.
In the case of `CC(=O)N[C@H]1CSC(=O)[C@H](Cc2ccccc2)NC(=O)[C@H](CC(C)C)NC(=O)[C@H](CO)NC(=O)CNC1=O` (Ac-CGSLF; thioester 1-C), the figures for the IC50 in test [6] and in test [7] were 1160 nM and 189 nM, respectively.
Turning to `CC(=O)N[C@H]1CSC(=O)[C@H](Cc2ccccc2)NC(=O)[C@H](CC(C)C)NC(=O)[C@H](CO)NC(=O)[C@H](CO)NC1=O` (Ac-CSSLF; thioester 1-C), the IC50 in test [1] was 97 nM; in test [2], 101 nM; in test [3], 9.3 nM; in test [4], 140 nM.
As to `CC(=O)N[C@H]1CSC(=O)[C@H](Cc2ccccc2)N(C)C(=O)[C@H](CC(C)C)NC(=O)[C@H](CO)NC(=O)[C@H](CO)NC1=O` (Ac-CSSL[NMeF]; thioester 1-C), the IC50 in test [6] and in test [7] was greater than 30000 nM throughout.
In the case of `CC(=O)N[C@H]1CSC(=O)[C@H](Cc2ccccc2)NC(=O)[C@H](CC(C)C)N(C)C(=O)[C@H](CO)NC(=O)[C@H](CO)NC1=O` (Ac-CSS[NMeL]F; thioester 1-C), the IC50 in test [6] and in test [7] was greater than 30000 nM in each case.
Turning to `CC(=O)N[C@H]1CSC(=O)[C@H](Cc2ccccc2)NC(=O)[C@H](CC(C)C)NC(=O)[C@H](CO)N(C)C(=O)[C@H](CO)NC1=O` (Ac-CS[NMeS]LF; thioester 1-C), the IC50 in test [6] worked out at 1050 nM; in test [7], 319 nM.
With `CC(=O)N[C@H]1CSC(=O)[C@H](Cc2ccccc2)NC(=O)[C@H](Cc2ccccc2)NC(=O)COCCOCCNC1=O` (Ac-C[AEEA]FF; thioester 1-C), the IC50 in test [1] amounted to 583 nM; in test [2] it was 181 nM; in test [3] it was 332 nM; in test [4], 5940 nM.
For the compound `CC(=O)N[C@H]1CSC(=O)[C@H](Cc2ccccc2)NC(=O)[C@H](Cc2ccccc2)NC(=O)CCCCCCCNC1=O` (Ac-C[Aoc]FF; thioester 1-C), the IC50 in test [1] came out at 495 nM; in test [2], 340 nM; in test [3] it was 34.8 nM; in test [4] it was 985 nM.
Regarding `CC(=O)N[C@H]1CSC(=O)[C@H](Cc2ccccc2)N(C)C(=O)[C@H](CC(C)C)NC(=O)CCCCNC1=O` (Ac-C[Ava]L[NMeF]; thioester 1-C), the values for the IC50 in test [6] and in test [7] were 50700 nM and 1140 nM, respectively.
On to `CC(=O)N[C@H]1CSC(=O)[C@H](Cc2ccccc2)NC(=O)[C@H](CC(C)C)NC(=O)[C@H](CO)NC(=O)[C@H](CO)N(C)C1=O` (Ac-C[NMeS]SLF; thioester 1-C), for which the results for the concentration for half-maximal inhibition (IC50) in test [6] and in test [7] were 7880 nM and 639 nM, respectively.
As to `CC(=O)N[C@H]1CNC(=O)[C@H](Cc2ccccc2)N(C)C(=O)[C@H](CC(C)C)NC(=O)[C@H](CO)NC(=O)[C@H](CO)NC1=O` (Ac-[Dap]SSL[NMeF]; lactam 1-C), the IC50 in test [6] amounted to 167000 nM; in test [7], 1390 nM.
On to `CC(=O)N[C@H]1CNC(=O)[C@H](Cc2ccccc2)NC(=O)[C@H](Cc2ccccc2)NC(=O)COCCOCCNC1=O` (Ac-[Dap][AEEA]FF; lactam 1-C), for which the IC50 in test [1], in test [2], in test [3] and in test [4] was greater than 10000 nM each time.
`CC(=O)N[C@H]1CNC(=O)[C@H](Cc2ccccc2)NC(=O)[C@H](Cc2ccccc2)NC(=O)CCCCCCCNC1=O` (Ac-[Dap][Aoc]FF; lactam 1-C): the IC50 in test [1] was 2200 nM; in test [2], 3940 nM; in test [3], 573 nM.
Take `CC(C)[C@H](NC(=O)[C@H](CO)NC(=O)[C@H](CC(=O)O)NC(=O)CN)C(=O)N[C@H]1CSC(=O)[C@H](Cc2ccccc2)NC(=O)[C@H](Cc2ccc(O)cc2)NC(=O)[C@H](CO)NC(=O)[C@H](C)NC1=O` (H-GDSVCASYF; thioester 5-C): the Activity in test [8] was 15.6 U/mg.
Regarding `CC[C@H](C)[C@H](N)C(=O)N[C@@H](CC(N)=O)C(=O)N[C@H]1CNC(=O)[C@H](CC(C)C)NC(=O)[C@H](CC(C)C)NC(=O)[C@H](Cc2ccccc2)NC(=O)[C@H](CC(=O)O)NC1=O` (H-IN[Dap]DFLL; lactam 3-C), the IC50 in test [1] was greater than 1000 nM; in test [2], greater than 1000 nM; in test [3], 75.2 nM; in test [4], 299 nM.
`CC(C)[C@H](NC(=O)[C@@H](N)CO)C(=O)N[C@H]1CSC(=O)[C@H](Cc2ccccc2)NC(=O)[C@H](Cc2ccc(O)cc2)NC(=O)[C@H](CO)NC(=O)[C@H](C)NC1=O` (H-SVCASYF; thioester 3-C): in test [8], the Activity was determined as 16.1 U/mg.
In the case of `CC(C)C[C@@H]1NC(=O)[C@H](CC(C)C)NC(=O)[C@H](Cc2ccccc2)NC(=O)[C@H](C)NC(=O)[C@@H](N)CNC1=O` (H-[Dap]AFLL; lactam 1-C), the IC50 in test [1] turned out to be 13.9 nM; in test [2], 1.5 nM; in test [3], 0.216 nM; in test [4] it was 0.189 nM.
Take `C#CCCC(=O)N[C@H](C(=O)N[C@@H](CC(N)=O)C(=O)N[C@H]1CSC(=O)[C@H](CC(C)C)NC(=O)[C@H](CC(C)C)NC(=O)[C@H](Cc2ccccc2)NC(=O)[C@H](C)NC1=O)[C@@H](C)CC` (Pent4ynoyl-INCAFLL; thioester 3-C): the IC50 in test [1] is greater than 1000 nM; in test [2], 1000 nM; in test [3], greater than 1000 nM; in test [4], greater than 1000 nM.
For `CC(C)C[C@@H]1NC(=O)[C@H](CO)NC(=O)[C@H](CO)NC(=O)CCSC(=O)[C@H](Cc2ccccc2)N(C)C1=O` ([Mpa]SSL[NMeF]; thioester 1-C), the IC50 was determined as 0.9 nM in test [1]; 0.257 nM in test [2]; 0.329 nM in test [3]; 47300 nM in test [6]; 0.0957 nM in test [4]; 1680 nM in test [7].
In test [8], H-DSVCASYF-OH came in with an Activity of 9.8 U/mg.
Turning to H-GDSVCASYF-OH, the Activity in test [8] is 11.2 U/mg.
Still for that read-out and setting: as for H-SVCASYF-OH, the figure is 8.9 U/mg.
